# In article PMC3265452 (PLoS Neglected Tropical Diseases, 2012):
# Where a name gives a salt, the structure may show the parent alone.
# Target: AaDOP2 (Aedes aegypti, UniProt H6D5H2)
# Assay: AaDOP2 antagonist screen of the LOPAC1280 library (HEK-CRELuc-Aadop2 cells, luminescence)
# Type: cell-based
# Conditions: not given
# AaDOP2, sequence (H6D5H2 1-476): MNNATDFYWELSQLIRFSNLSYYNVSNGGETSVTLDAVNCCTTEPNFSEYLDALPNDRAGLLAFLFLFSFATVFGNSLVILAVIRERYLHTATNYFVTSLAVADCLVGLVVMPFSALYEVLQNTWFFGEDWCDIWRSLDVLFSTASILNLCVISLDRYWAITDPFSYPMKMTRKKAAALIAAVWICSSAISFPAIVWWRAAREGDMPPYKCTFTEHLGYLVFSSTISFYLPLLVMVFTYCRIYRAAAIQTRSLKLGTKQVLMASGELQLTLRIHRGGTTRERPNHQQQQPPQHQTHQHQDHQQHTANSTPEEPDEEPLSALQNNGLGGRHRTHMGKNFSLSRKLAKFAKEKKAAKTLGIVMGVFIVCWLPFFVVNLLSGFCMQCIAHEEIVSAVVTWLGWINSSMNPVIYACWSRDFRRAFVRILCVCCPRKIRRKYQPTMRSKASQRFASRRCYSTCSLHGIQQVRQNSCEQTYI
row,Compound,"Compound effect (percent receptor signaling in presence of test compound, relative lux units relative to the SCH23390 control)"
1,"NC(=O)c1ncn([C@@H]2O[C@H](CO)[C@@H](O)[C@H]2O)n1 [Compound 1059, Ribavirin]",119
2,"CNC(=C[N+](=O)[O-])NCCSCc1ccc(CN(C)C)o1 [Compound 1060, Ranitidine hydrochloride]",106
3,"Cc1nc2sccn2c(=O)c1CCN1CCC(=C(c2ccc(F)cc2)c2ccc(F)cc2)CC1 [Compound 1061, Ritanserin]",18
4,"COC(=O)[C@H]1[C@H]2C[C@H]3c4[nH]c5ccccc5c4CCN3C[C@H]2CC[C@@H]1O [Compound 1062, Rauwolscine hydrochloride]",87
5,"O=C(c1cc(O)c(O)c([N+](=O)[O-])c1)c1ccccc1F [Compound 1065, Ro 41-0960]",88
6,"Nc1c(S(=O)(=O)O)cc(Nc2ccc(Nc3nc(Cl)nc(Nc4cccc(S(=O)(=O)O)c4)n3)c(S(=O)(=O)O)c2)c2c1C(=O)c1ccccc1C2=O [Compound 1066, Reactive Blue 2]",93
7,"CC(C)COC(=O)OCN1C(=O)CN(CCN2CC(=O)N(COC(=O)OCC(C)C)C(=O)C2)CC1=O [Compound 1070, Sobuzoxane]",96
8,"C1COC(NC(C2CC2)C2CC2)=N1 [Compound 1071, Rilmenidine hemifumarate]",114
9,"COc1cccc(NC(=O)/C=C/c2ccc(Cl)cc2)c1 [Compound 1075, SB-366791]",105
10,"Nc1ccc(S(=O)(=O)Nc2ccnn2-c2ccccc2)cc1 [Compound 1078, Sulfaphenazole]",112
11,"CN1CCc2cccc(Cl)c2CC1 [Compound 1082, SKF 86466]",37
12,"Cl.NC1CCN(c2cccc(Cl)n2)CC1 [Compound 1083, SR 57227A]",100
13,"Cl.NNC(N)=O [Compound 1086, Semicarbazide hydrochloride]",107
14,"NCCCCNCCCN [Compound 1089, Spermidine trihydrochloride]",104
15,"C=CCN1C[C@H](C)N([C@H](c2ccc(C(=O)N(CC)CC)cc2)c2cccc(OC)c2)C[C@H]1C [Compound 1090, SNC80]",94
16,"Br.Cc1cccc(C2CN(C)CCc3c2cc(O)c(O)c3Cl)c1 (centres unmarked) [Compound 1091, SKF 83959 hydrobromide]",50
17,"NCCCNCCCCNCCCN [Compound 1092, Spermine tetrahydrochloride]",88
18,"CC(=O)NNC(=O)N1Cc2ccccc2Oc2ccc(Cl)cc21 [Compound 1094, SC 19220]",99
19,"Br.Oc1ccc(C2CNCc3sccc32)cc1O (centres unmarked) [Compound 1095, SKF 89626]",89
20,"CC(=O)S[C@@H]1CC2=CC(=O)CC[C@]2(C)[C@H]2CC[C@@]3(C)[C@@H](CC[C@@]34CCC(=O)O4)[C@H]12 [Compound 1099, Spironolactone]",84
21,"N[C@H](CO)C(=O)O [Compound 1101, D-Serine]",100

row,Compound,"Compound effect (percent receptor signaling in presence of test compound, relative lux units relative to the SCH23390 control)"
1,"C[n+]1cc2c3c(ccc2c2ccc4cc5c(cc4c21)OCO5)OCO3 [Compound 1103, Sanguinarine chloride]",75
2,"CCCCCCCCCCCCC/C=C/[C@@H](O)[C@@H](N)CO [Compound 1105, Sphingosine]",106
3,"CC1CCN(CC[C@H]2CCCN2S(=O)(=O)c2cccc(O)c2)CC1.Cl [Compound 1106, SB 269970 hydrochloride]",98
4,"O=C(CCCN1CCC2(CC1)C(=O)NCN2c1ccccc1)c1ccc(F)cc1 [Compound 1107, Spiperone hydrochloride]",29
5,"O=C(O)c1ccccc1Nc1cccc(OCc2ccc3ccccc3n2)c1 [Compound 1108, SR 2640]",91
6,"CCN1CCC[C@H]1CNC(=O)c1cc(S(N)(=O)=O)ccc1OC [Compound 1109, (-)-Sulpiride]",87
7,"COc1ccc(CCCOC(Cn2ccnc2)c2ccc(OC)cc2)cc1 (centres unmarked) [Compound 1110, SKF 96365]",68
8,"CC#CCOC(=O)c1c(C)nc2sc3c(c2c1N)CCC(O)C3 (centres unmarked) [Compound 1112, SB 205384]",81
9,"CCCCCCCCCCCCCCCCCCNC(=O)OCC(COP(=O)([O-])OCC[n+]1ccsc1)OC (centres unmarked) [Compound 1114, CV-3988]",101
10,"CC1=C(CC(=O)O)c2cc(F)ccc2/C1=C\c1ccc([S+](C)[O-])cc1 (centres unmarked) [Compound 1115, Sulindac]",107
11,"C[N+](C)(C)CCOC(=O)CCC(=O)OCC[N+](C)(C)C [Compound 1116, Succinylcholine chloride]",94
12,"CC(C)(C)NCC(O)c1ccc(O)c(CO)c1 (centres unmarked) [Compound 1117, Salbutamol]",107
13,"OCc1cc(C(O)CNCCCCCCOCCCCc2ccccc2)ccc1O (centres unmarked) [Compound 1118, Salmeterol]",104
14,"C[N+]1(C)[C@@H]2C[C@@H](OC(=O)[C@H](CO)c3ccccc3)C[C@H]1[C@@H]1O[C@@H]12 [Compound 1120, (-)-Scopolamine methyl bromide]",114
15,"CN(C)c1ccc(/C=C2\C(=O)Nc3ccccc32)cc1 [Compound 1121, SU 4312]",51
16,"CCc1ccccc1OC[C@@H](O)CN[C@H]1CCCc2ccccc21.O=C(O)C(=O)O [Compound 1122, SR 59230A oxalate]",75
17,"Cl.O=C(Cc1ccc(Cl)c(Cl)c1)N1CCCCC1CN1CCCC1 (centres unmarked) [Compound 1123, BRL 52537 hydrochloride]",97
18,"Cc1ccc(O)c(N=Nc2ccccc2)n1 [Compound 1125, SIB 1757]",46
19,"Cc1cccc(/C=C/c2ccccc2)n1 [Compound 1126, SIB 1893]",83
20,"Cl.c1ccc2c(N3CCNCC3)cccc2c1 [Compound 1127, 1-(1-Naphthyl)piperazine hydrochloride]",79
21,"O=C(c1ccc(F)cc1)C1CCN(CCn2c(=O)[nH]c3ccccc3c2=O)CC1 [Compound 1128, Ketanserin tartrate]",53

# Same assay, conditions: 10 µM compound, 300 nM dopamine, 2 hr; hit = compound effect <20
row,Compound,"Compound effect (percent receptor signaling in presence of test compound, relative lux units relative to the SCH23390 control) [%]"
1,"COc1ccc(CCNC[C@H](O)c2ccc(O)cc2)cc1OC [Compound 1072, R(-)-Denopamine]",107
2,"CNc1cc(NS(=O)(=O)c2ccc(N)cc2)nc(NC)n1.Cl.Cl [Compound 1073, Ro 04-6790 dihydrochloride]",135
3,"CC1=C(CC(=O)O)c2cc(F)ccc2/C1=C\c1ccc(S(C)(=O)=O)cc1 [Compound 1080, Sulindac sulfone]",122
4,"Br.CN1CCc2cc(O)c(O)cc2C(c2ccccc2)C1 (centres unmarked) [Compound 1093, SKF 75670 hydrobromide]",39
5,"CCCCN1CCC(COC(=O)c2cc(Cl)c(N)c3c2OCCO3)CC1.Cl [Compound 1097, SB 204070 hydrochloride]",122
6,"CCCCCCCC/C=C\CCCCCCCC(=O)NCCc1ccc(O)c(O)c1 [Compound 1098, N-Oleoyldopamine]",122
7,"Br.CN=c1nc(-c2ccccc2)n(-c2ccccc2)s1 [Compound 1100, SCH-202676 hydrobromide]",102
8,"CC(C)(C)NCC(O)c1ccc(O)c(CO)c1.CC(C)(C)NCC(O)c1ccc(O)c(CO)c1.O=S(=O)(O)O (centres unmarked) [Compound 1102, Albuterol hemisulfate]",106
9,"O=C(O)CCC(=O)N1CCC[C@H]1C(=O)O [Compound 1104, N-Succinyl-L-proline]",111
10,"Cl.O=C(O)C1CCCN(CCC=C(c2ccccc2)c2ccccc2)C1 (centres unmarked) [Compound 1124, SKF 89976A hydrochloride]",95

# Same assay, conditions: read-out: % of the SCH23390 effect (percent inhibition of receptor response relative to the SCH23390 control)
row,Compound,inhibition at 10 µM [%]
1,"Cc1nc2sccn2c(=O)c1CCN1CCC(=C(c2ccc(F)cc2)c2ccc(F)cc2)CC1 [Compound 1061, Ritanserin]",83
